Read-outs that look alike come from different tables or passages of the source.
Assays:
[1] = test system: HEK 293T (human embryonic kidney cancer cell line); assay: In vitro cytotoxicity assay (CellTiter-Glo, 72 hours), HEK 293T; format: cell-based; conditions: Homo sapiens, HEK-293T, 72 h
[2] = test system: MES SA (uterine sarcoma cell line); assay: In vitro cytotoxicity assay (CellTiter-Glo, 72 hours), MES SA; format: cell-based; conditions: Homo sapiens, MES-SA, 72 h
[3] = test system: MES SA DX (MES SA cell line with marked multi-drug resistance); assay: In vitro cytotoxicity assay (CellTiter-Glo, 72 hours), MES SA DX; conditions: Homo sapiens, MES-SA, 72 h
[4] = read-out: HEK 293T, IC50 Value in nM
[5] = read-out: MES SA, IC50 Value in nM
[6] = read-out: MES SA DX, IC50 Value in nM

| SMILES | IC50 [1, 4] [nM] | IC50 [2, 5] [nM] | IC50 [3, 6] [nM] | IC50 ([1]; read-out: HEK 293T, IC50) [nM] | IC50 ([2]; read-out: MES SA, IC50) [nM] | IC50 ([3]; read-out: MES SA DX, IC50) [nM] |
| --- | --- | --- | --- | --- | --- | --- |
| COC(=O)[C@@H](C)C[C@H](Cc1ccccc1)NC(=O)c1csc([C@@H](C[C@H](C(C)C)N(C)C(=O)[C@H](NC(=O)[C@H]2CCCCN2C)C(C(F)(F)F)C(F)(F)F)OC(C)=O)n1 [Tb85, Methyl(2S,4R)-4-[({2-[(1R,3R)-1-acetoxy-4-methyl-3-{methyl[(2R)-4,4,4-trifluoro-2-({[(2R)-1-meth-ylpiperidin-2-yl]carbonyl}amino)-3-(trifluoromethyl)butanoyl]amino}pentyl]-1,3-thiazol-4-yl}-carbonyl)amino]-2-methyl-5-phenylpentanoate] | 32.4 | 37.3 | > 1000 |  |  |  |
| COC(=O)[C@@H](C)C[C@H](Cc1ccccc1)NC(=O)c1csc([C@@H](C[C@H](C(C)C)N(C)C(=O)[C@H](CC(F)(F)F)NC(=O)[C@H]2CCCCN2C)OC(C)=O)n1 [Tb81, Methyl (2S,4R)-4-[({2-[(1R,3R)-1-acetoxy-4-methyl-3-{methyl[(2S)-4,4,4-trifluoro-2-({[(2R)-1-meth-ylpiperidin-2-yl]carbonyl}amino)butanoyl]amino}pentyl]-1,3-thiazol-4-yl}carbonyl)amino]-2-methyl-5-phenylpentanoate] | 4.98 | 5.84 | > 1000 |  |  |  |
| COC(=O)[C@@H](C)C[C@H](Cc1ccccc1)NC(=O)c1csc([C@H](O)C[C@H](C(C)C)N(C)C(=O)[C@@H](NC(=O)[C@H]2CCCCN2C)C(C(F)(F)F)C(F)(F)F)n1 [Tb80, Methyl (2S,4R)-4-[({2-[(1R,3R)-1-hydroxy-4-methyl-3-{methyl[(2S)-4,4,4-trifluoro-2-({[(2R)-1-methylpiperidin-2-yl]carbonyl}amino)-3-(trifluoromethyl)butanoyl]amino}pentyl]-1,3-thiazol-4-yl}-carbonyl)amino]-2-methyl-5-phenylpentanoate] | > 1000 | > 1000 | > 1000 |  |  |  |
| COC(=O)[C@@H](C)C[C@H](Cc1ccccc1)NC(=O)c1nc([C@@H](C[C@H](C(C)C)N(C)C(=O)[C@@H](NC(=O)[C@H]2CCCCN2)C(C)C)OC(C)=O)sc1C [Tb69, Methyl (2S,4R)-4-[({2-[(1R,3R)-1-acetoxy-4-methyl-3-{methyl[(2S)-3-methyl-2-{[(2R)-piperidin-2-ylcarbonyl]amino}butanoyl]amino}pentyl]-5-methyl-1,3-thiazol-4-yl}carbonyl)amino]-2-methyl-5-phenylpentanoate] | > 1000 | 30.8 | > 1000 |  |  |  |
| CCOC(=O)[C@@H](C)C[C@H](Cc1ccccc1)NC(=O)c1csc([C@@H](C[C@H](C(C)C)N(C)C(=O)[C@@H](NC(=O)[C@H]2C[C@H](O)CCN2C)C(C)C)OC(C)=O)n1 [Tb76, Ethyl (2S,4R)-4-[({2-[(1R,3R)-1-acetoxy-3-{[(2S)-2-({[(2R,4R)-4-hydroxy-1-methylpiperidin-2-yl]-carbonyl}amino)-3-methylbutanoyl](methyl)amino}-4-methylpentyl]-1,3-thiazol-4-yl}carbonyl)-amino]-2-methyl-5-phenylpentanoate] | 1.37 | 4.88 | > 2500 |  |  |  |
| COC(=O)[C@@H](C)C[C@H](Cc1ccccc1)NC(=O)c1cccc([C@@H](C[C@H](C(C)C)N(C)C(=O)[C@@H](NC(=O)[C@H]2CCCCN2C)C(C)C)OC(C)=O)n1 [Tb64, Methyl (2S,4R)-4-[({6-[(1R,3R)-1-acetoxy-4-methyl-3-{methyl[(2S)-3-methyl-2-({[(2R)-1-methyl-piperidin-2-yl]carbonyl}amino)butanoyl]amino}pentyl]pyridin-2-yl}carbonyl)amino]-2-methyl-5-phenylpentanoate] | 0.1 | 0.22 | 109 | 0.1 | 0.22 | 109 |

— patent US11274124B2, “Tubulysin analogues as anticancer agents and payloads for antibody-drug conjugates and methods of treatment therewith” (William Marsh Rice University, priority 2017, dated 2022)
